The NIST ThermoML archive (doi:10.1016/j.jct.2015.02.023)
± gives the expanded uncertainty stated by the source.

Test: activity coefficient (dimensionless); of the first substance listed, at infinite dilution; xn = mol fraction of the nth substance listed
Conditions: 101.33 kPa, Liquid, Chromatography, x1 = 0

Row | SMILES | activity coefficient (313.15 K) | activity coefficient (333.15 K) | activity coefficient (353.15 K) | activity coefficient (373.15 K) | activity coefficient (323.15 K) | activity coefficient (343.15 K)
1 | Cc1ccccc1C [1,2-dimethylbenzene] + CCn1cc[n+](C)c1.CO[PH](=O)[O-] | 14.4 ± 1 | 15 ± 1 | 16.2 ± 1.1 | 18.8 ± 1.3 | – | –
2 | Cc1ccccc1C [1,2-dimethylbenzene] + CO[PH](=O)[O-].Cn1cc[n+](C)c1 | 19.2 ± 1.3 | 18.6 ± 1.3 | – | – | 19.1 ± 1.3 | 18.5 ± 1.3
3 | Cc1cccc(C)c1 [1,3-dimethylbenzene] + CCn1cc[n+](C)c1.CO[PH](=O)[O-] | 18.6 ± 1.3 | 18.8 ± 1.3 | 20.4 ± 1.4 | 24.9 ± 1.7 | – | –
4 | Cc1cccc(C)c1 [1,3-dimethylbenzene] + CO[PH](=O)[O-].Cn1cc[n+](C)c1 | 24.5 ± 1.7 | 23.6 ± 1.6 | – | – | 24.4 ± 1.7 | 23.1 ± 1.6
5 | Cc1ccc(C)cc1 [1,4-dimethylbenzene] + CCn1cc[n+](C)c1.CO[PH](=O)[O-] | 16.9 ± 1.2 | 18 ± 1.2 | 19.3 ± 1.3 | 21.9 ± 1.5 | – | –
6 | Cc1ccc(C)cc1 [1,4-dimethylbenzene] + CO[PH](=O)[O-].Cn1cc[n+](C)c1 | 23.4 ± 1.6 | 22.7 ± 1.6 | – | – | 23.4 ± 1.6 | 22 ± 1.5
7 | C1COCCO1 [1,4-dioxane] + CCn1cc[n+](C)c1.CO[PH](=O)[O-] | 3.4 ± 0.23 | 3.55 ± 0.24 | 3.87 ± 0.26 | 4.33 ± 0.29 | – | –
8 | C1COCCO1 [1,4-dioxane] + CO[PH](=O)[O-].Cn1cc[n+](C)c1 | 3.73 ± 0.25 | 3.69 ± 0.25 | – | – | 3.72 ± 0.25 | 3.66 ± 0.25
9 | C#CCCCCC [1-heptyne] + CCn1cc[n+](C)c1.CO[PH](=O)[O-] | 10.2 ± 0.7 | 11.1 ± 0.8 | 11.8 ± 0.8 | 12 ± 0.8 | – | –
10 | C#CCCCCC [1-heptyne] + CO[PH](=O)[O-].Cn1cc[n+](C)c1 | 22 ± 1.5 | 23.5 ± 1.6 | – | – | 23.5 ± 1.6 | 24.9 ± 1.7
11 | C#CCCCC [1-hexyne] + CCn1cc[n+](C)c1.CO[PH](=O)[O-] | 6.24 ± 0.43 | 6.73 ± 0.46 | 7.14 ± 0.49 | 7.56 ± 0.52 | – | –
12 | C#CCCCC [1-hexyne] + CO[PH](=O)[O-].Cn1cc[n+](C)c1 | 12.7 ± 0.87 | 13.4 ± 0.91 | – | – | 13 ± 0.88 | 13.7 ± 0.93
13 | CCC[N+](=O)[O-] [1-nitropropane] + CCn1cc[n+](C)c1.CO[PH](=O)[O-] | 2.68 ± 0.18 | 2.69 ± 0.18 | 2.75 ± 0.19 | 2.8 ± 0.19 | – | –
14 | CCC[N+](=O)[O-] [1-nitropropane] + CO[PH](=O)[O-].Cn1cc[n+](C)c1 | 3.41 ± 0.23 | 3.29 ± 0.22 | – | – | 3.35 ± 0.23 | 3.29 ± 0.22
15 | CC(C)CO [2-methyl-1-propanol] + CCn1cc[n+](C)c1.CO[PH](=O)[O-] | – | – | 0.292 ± 0.031 | 0.309 ± 0.031 | – | –
16 | CC#N [acetonitrile] + CCn1cc[n+](C)c1.CO[PH](=O)[O-] | 1.08 ± 0.07 | 1.11 ± 0.07 | 1.19 ± 0.08 | 1.25 ± 0.08 | – | –
17 | CC#N [acetonitrile] + CO[PH](=O)[O-].Cn1cc[n+](C)c1 | 1.1 ± 0.07 | 1.12 ± 0.07 | – | – | 1.11 ± 0.07 | 1.12 ± 0.07
18 | c1ccccc1 [benzene] + CCn1cc[n+](C)c1.CO[PH](=O)[O-] | 3.44 ± 0.23 | 3.52 ± 0.24 | 3.61 ± 0.25 | 3.75 ± 0.26 | – | –
19 | c1ccccc1 [benzene] + CO[PH](=O)[O-].Cn1cc[n+](C)c1 | 5.69 ± 0.39 | 5.52 ± 0.38 | – | – | 5.58 ± 0.38 | 5.43 ± 0.37

Row | SMILES | activity coefficient (313.15 K) | activity coefficient (333.15 K) | activity coefficient (353.15 K) | activity coefficient (373.15 K) | activity coefficient (323.15 K) | activity coefficient (343.15 K)
20 | CCCCO [butan-1-ol] + CCn1cc[n+](C)c1.CO[PH](=O)[O-] | – | – | 0.308 ± 0.031 | 0.324 ± 0.032 | – | –
21 | CCC(C)=O [butanone] + CCn1cc[n+](C)c1.CO[PH](=O)[O-] | 3.49 ± 0.24 | 3 ± 0.2 | 2.56 ± 0.17 | 2.37 ± 0.16 | – | –
22 | CCC(C)=O [butanone] + CO[PH](=O)[O-].Cn1cc[n+](C)c1 | 5.52 ± 0.38 | 4.66 ± 0.32 | – | – | 5.16 ± 0.35 | 4.17 ± 0.28
23 | C1CCCCCC1 [cycloheptane] + CCn1cc[n+](C)c1.CO[PH](=O)[O-] | 98.8 ± 6.8 | 180 ± 12 | 303 ± 21 | 438 ± 30 | – | –
24 | C1CCCCCC1 [cycloheptane] + CO[PH](=O)[O-].Cn1cc[n+](C)c1 | 250 ± 17 | – | – | – | – | –
25 | C1CCCCC1 [cyclohexane] + CCn1cc[n+](C)c1.CO[PH](=O)[O-] | 89 ± 6 | 43.1 ± 3 | – | – | – | –
26 | C1CCCCC1 [cyclohexane] + CO[PH](=O)[O-].Cn1cc[n+](C)c1 | 129 ± 9 | – | – | – | – | –
27 | CCCCCCCCCC [decane] + CCn1cc[n+](C)c1.CO[PH](=O)[O-] | 882 ± 61 | 704 ± 48 | 582 ± 40 | – | – | –
28 | CCCCCCCCCC [decane] + CO[PH](=O)[O-].Cn1cc[n+](C)c1 | 1220 ± 84 | – | – | – | 1210 ± 84 | –
29 | ClCCl [dichloromethane] + CCn1cc[n+](C)c1.CO[PH](=O)[O-] | 0.502 ± 0.038 | 0.642 ± 0.044 | 0.798 ± 0.052 | – | – | –
30 | ClCCl [dichloromethane] + CO[PH](=O)[O-].Cn1cc[n+](C)c1 | 0.57 ± 0.04 | 0.72 ± 0.05 | – | – | 0.65 ± 0.04 | 0.77 ± 0.05
31 | CCOCC [diethyl ether] + CCn1cc[n+](C)c1.CO[PH](=O)[O-] | 1.99 ± 0.14 | 2.43 ± 0.17 | 3.5 ± 0.24 | 4.6 ± 0.31 | – | –
32 | CCCCCCCCCCCC [dodecane] + CCn1cc[n+](C)c1.CO[PH](=O)[O-] | 1740 ± 120 | 1540 ± 110 | 1300 ± 90 | 915 ± 63 | – | –
33 | CCCCCCCCCCCC [dodecane] + CO[PH](=O)[O-].Cn1cc[n+](C)c1 | 2350 ± 160 | 1790 ± 120 | – | – | 1920 ± 130 | –
34 | CCO [ethanol] + CCn1cc[n+](C)c1.CO[PH](=O)[O-] | – | 0.148 ± 0.029 | 0.156 ± 0.029 | 0.169 ± 0.029 | – | –
35 | CCO [ethanol] + CO[PH](=O)[O-].Cn1cc[n+](C)c1 | – | – | – | – | – | 0.16 ± 0.03
36 | CCc1ccccc1 [ethylbenzene] + CCn1cc[n+](C)c1.CO[PH](=O)[O-] | 11.4 ± 0.8 | 11.6 ± 0.8 | 11.7 ± 0.8 | 11.9 ± 0.8 | – | –
37 | CCc1ccccc1 [ethylbenzene] + CO[PH](=O)[O-].Cn1cc[n+](C)c1 | 22.7 ± 1.6 | 21.7 ± 1.5 | – | – | 22.1 ± 1.5 | 21.5 ± 1.5
38 | C=O [methanal] + CCn1cc[n+](C)c1.CO[PH](=O)[O-] | 0.059 | 0.084 ± 0.03 | 0.115 ± 0.03 | 0.151 ± 0.029 | – | –
